Assay: water solubility of complex carbohydrate agents
Type: physicochemical
Experimental: Specific solubilities are: dextran, 50 mg/ml; hydroxymethylcellulose, 10 mg/ml; cellulose, 0 mg/ml; oat beta glucan, 20 mg/ml.

| Substance | solubility [mg/mL] |
| --- | --- |
| hydroxymethylcellulose | 10 |
| oat beta glucan | 20 |

Reference: US20200352854A1, “DEVICES AND METHODS FOR PREVENTING AND INHIBITING PERIODONTAL DISEASE” (Fixed Focus LLC, priority 2019, published 2020)
